The source of these data is ChEMBL document CHEMBL1133892 (Bioorg Med Chem Lett, 2001).

Each structure is given as a SMILES string.

In test [1] the target is Prostaglandin E2 receptor EP2 subtype (Homo sapiens, UniProt P43116). The test is described as follows: Compound was evaluated for its competitive binding affinity towards human Prostanoid EP2 receptor in CHO cells expressing prostanoid receptor. Format: cell-based.
Test [2] concerns the target T1, Prostaglandin E2 receptor EP2 subtype (Mus musculus, UniProt Q62053). The test is described as follows: Binding affinity towards mouse Prostanoid EP2 receptor expressed in CHO cells. Format: cell-based.
The target in test [3] is T2, Prostacyclin receptor (Homo sapiens, UniProt P43119). The test can be described thus: Binding affinity towards human Prostanoid IP receptor in CHO cells. It is filed as cell-based.
Test [4] has as its target T1, Prostaglandin E2 receptor EP2 subtype. The test is described as follows: Effective concentration which increases intracellular c-AMP production in mouse Prostanoid EP2 receptor. Format: functional, cell-based.
For test [5], the target named is Prostaglandin E2 receptor EP4 subtype (Mus musculus, UniProt P32240). The test can be described thus: Binding affinity towards mouse Prostanoid EP4 receptor in CHO cells. Format: cell-based.
For test [6], the target named is T3, Prostaglandin E2 receptor EP3 subtype (Mus musculus, UniProt P30557).
T3 sequence (P30557 whole entry): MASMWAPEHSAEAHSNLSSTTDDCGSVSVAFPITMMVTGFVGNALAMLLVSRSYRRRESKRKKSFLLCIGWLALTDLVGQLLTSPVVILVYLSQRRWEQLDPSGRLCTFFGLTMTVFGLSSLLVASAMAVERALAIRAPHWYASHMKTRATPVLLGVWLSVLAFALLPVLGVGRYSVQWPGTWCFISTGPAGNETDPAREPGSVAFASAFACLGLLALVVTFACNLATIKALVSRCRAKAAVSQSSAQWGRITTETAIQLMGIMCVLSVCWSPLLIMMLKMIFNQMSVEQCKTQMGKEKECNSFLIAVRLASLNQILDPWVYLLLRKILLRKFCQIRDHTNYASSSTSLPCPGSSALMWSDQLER
The test is described as follows: Binding affinity towards mouse Prostanoid EP3 receptor in CHO cells. It is filed as cell-based.

Test [7] relates to Rattus norvegicus. The test is described as follows: Suppression of uterine motility for the 5-min period before and after the commencenment of intravenous administration to anesthetized pregnant rats. It is filed as functional.
Test [8] has as its system Rattus norvegicus. The test can be described thus: Evaluated for its maximal response of hypotensive effect at 300 ug/kg, iv. It is filed as functional.
Test [9] concerns the target T4, Prostaglandin E2 receptor EP1 subtype (Mus musculus, UniProt P35375).
T4 sequence (P35375 whole entry): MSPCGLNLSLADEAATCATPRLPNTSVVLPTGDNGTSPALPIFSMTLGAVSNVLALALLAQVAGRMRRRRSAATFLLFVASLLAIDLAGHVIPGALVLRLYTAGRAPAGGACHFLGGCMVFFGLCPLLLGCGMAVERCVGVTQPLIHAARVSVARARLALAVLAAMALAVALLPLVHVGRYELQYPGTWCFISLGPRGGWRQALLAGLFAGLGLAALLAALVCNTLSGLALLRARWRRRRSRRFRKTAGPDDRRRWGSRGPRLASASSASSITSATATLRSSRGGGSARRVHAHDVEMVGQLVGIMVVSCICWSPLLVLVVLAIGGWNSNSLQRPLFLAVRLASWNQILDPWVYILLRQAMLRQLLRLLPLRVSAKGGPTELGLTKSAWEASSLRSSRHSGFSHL
The test can be described thus: Binding affinity towards mouse Prostanoid EP1 receptor in CHO cells. It is filed as cell-based.

In test [10] the target is T2, Prostacyclin receptor. The test is described as follows: Effective concentration which increases intracellular c-AMP production in human Prostanoid IP receptor. Format: functional, cell-based.
The target of test [11] is T1, Prostaglandin E2 receptor EP2 subtype. The test can be described thus: Effective concentration which increases intracellular c-AMP production in mouse EP2- receptor. It is filed as functional, cell-based.
Test [12] relates to Rattus norvegicus. The test can be described thus: Evaluated for its maximal response of hypotensive effect at 1000 ug/kg, iv. It is filed as functional.

T2 sequence (P43119 whole entry): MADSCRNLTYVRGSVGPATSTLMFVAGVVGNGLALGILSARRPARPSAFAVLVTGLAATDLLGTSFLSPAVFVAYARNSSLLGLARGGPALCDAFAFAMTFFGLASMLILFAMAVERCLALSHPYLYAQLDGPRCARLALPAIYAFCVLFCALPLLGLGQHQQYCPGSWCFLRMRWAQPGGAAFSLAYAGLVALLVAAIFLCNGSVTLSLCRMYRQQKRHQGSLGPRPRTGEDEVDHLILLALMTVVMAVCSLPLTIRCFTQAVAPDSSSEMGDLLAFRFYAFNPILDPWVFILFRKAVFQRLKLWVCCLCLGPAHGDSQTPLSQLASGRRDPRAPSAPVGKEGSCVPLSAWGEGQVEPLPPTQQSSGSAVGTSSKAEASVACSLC
Prostaglandin E2 receptor EP4 subtype, sequence (P32240 whole entry): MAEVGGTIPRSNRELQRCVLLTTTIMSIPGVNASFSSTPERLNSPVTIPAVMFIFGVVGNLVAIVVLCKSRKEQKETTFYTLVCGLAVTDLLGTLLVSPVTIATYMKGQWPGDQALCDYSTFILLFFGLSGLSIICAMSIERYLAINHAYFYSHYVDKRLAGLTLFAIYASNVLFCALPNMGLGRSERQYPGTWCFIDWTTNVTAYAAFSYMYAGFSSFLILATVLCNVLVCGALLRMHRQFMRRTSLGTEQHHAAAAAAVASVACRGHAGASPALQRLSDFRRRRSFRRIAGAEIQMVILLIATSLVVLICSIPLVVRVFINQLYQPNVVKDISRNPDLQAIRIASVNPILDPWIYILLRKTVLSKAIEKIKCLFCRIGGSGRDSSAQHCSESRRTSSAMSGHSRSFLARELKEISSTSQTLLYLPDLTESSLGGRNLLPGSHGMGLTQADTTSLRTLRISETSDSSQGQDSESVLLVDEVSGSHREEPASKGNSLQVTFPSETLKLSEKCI
T1 sequence (Q62053 whole entry): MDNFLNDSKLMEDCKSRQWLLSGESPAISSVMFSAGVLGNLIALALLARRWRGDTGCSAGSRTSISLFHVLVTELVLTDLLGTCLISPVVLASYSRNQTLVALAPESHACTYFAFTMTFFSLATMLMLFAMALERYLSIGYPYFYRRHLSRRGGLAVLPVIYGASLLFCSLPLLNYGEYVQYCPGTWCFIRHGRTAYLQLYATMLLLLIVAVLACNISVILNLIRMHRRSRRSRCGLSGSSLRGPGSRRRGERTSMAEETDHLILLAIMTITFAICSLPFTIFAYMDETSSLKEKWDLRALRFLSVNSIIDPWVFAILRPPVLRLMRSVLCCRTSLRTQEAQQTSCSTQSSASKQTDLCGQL
Prostaglandin E2 receptor EP2 subtype (Homo sapiens, UniProt P43116), sequence (P43116 whole entry): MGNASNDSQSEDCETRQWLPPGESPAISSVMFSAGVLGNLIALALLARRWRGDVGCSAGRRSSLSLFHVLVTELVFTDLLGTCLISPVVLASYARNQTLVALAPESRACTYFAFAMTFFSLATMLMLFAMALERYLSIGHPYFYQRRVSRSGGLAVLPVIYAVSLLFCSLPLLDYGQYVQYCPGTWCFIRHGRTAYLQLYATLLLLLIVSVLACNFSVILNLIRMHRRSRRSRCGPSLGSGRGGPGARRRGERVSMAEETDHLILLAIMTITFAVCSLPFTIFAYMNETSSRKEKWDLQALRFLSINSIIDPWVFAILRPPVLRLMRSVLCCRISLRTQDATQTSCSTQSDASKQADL

By Ki is commonly meant the equilibrium dissociation constant of an inhibitor or competing ligand from its target. Read a high Ki as a looser hold on the target. By EC50 is commonly meant the midpoint of the concentration-response curve. Low readings indicate a more potent agent, high ones a less potent agent. One may read the ED50 as the dose that gives a 50% effect, or the effect in half of the subjects. A low value points to an effect at a small dose. For `CCC1([C@@H](O)C/C=C/[C@@H]2[C@@H](C/C=C\CCCC(=O)O)[C@H](Cl)C[C@H]2O)CCC1`, the Ki was 0.74 nM in test [1]; 2.2 nM in [2]; over 10000 nM in test [3]; over 10000 nM in [5]; over 10000 nM in [6]; 3400 nM in test [9]. In addition, the EC50 in test [4] was found to be 2.8 nM. This compound yielded an ED50 in [7] of 0.0329 mg/kg. In [8], this compound displayed a Max response of 24.4 delta mmHg.

For the compound `CCCC1([C@@H](O)C/C=C/[C@H]2[C@H](O)CC(=O)[C@@H]2C/C=C\CCCC(=O)O)CCC1`, the Ki in [2] is 330 nM; in test [3] it was over 10000 nM; in [5] it was over 10000 nM; in test [6], 1200 nM; in test [9], over 10000 nM. Further, a half-maximal effect in test [4] (EC50) was put at 220 nM.

In the case of `CCCC1([C@@H](O)C/C=C/[C@H]2[C@H](O)CC(=O)[C@@H]2C/C=C\CCCC(=O)O)CCCCC1`, the values for the Ki in [2], in test [5] and in test [9] were 3300 nM, over 10000 nM and over 10000 nM, respectively. The compound further had an EC50 in [4] of over 10000 nM.

With `CCC1([C@@H](O)C/C=C/[C@@H]2[C@@H](C/C=C\CCCC(=O)O)[C@@H](Cl)C[C@H]2O)CCC1`, the Ki in test [2] is 13 nM; in test [3], over 10000 nM; in test [5], over 10000 nM; in test [6], over 10000 nM; in test [9], over 10000 nM. This compound had an EC50 in [4] of 39 nM.

Take `CCCCCC(O)/C=C/[C@H]1[C@H](O)CC(=O)[C@@H]1CCCCCCC(=O)O` (single isomer, unassigned) [ALPROSTADIL]: the EC50 in test [10] turned out to be 1.8 nM; in test [4], 2.6 nM. Besides, the Ki in test [2] was 87 nM; in [3], 150 nM; in test [5] it was 3.3 nM; in [6], 5 nM; in test [9], 100 nM.

On to `CCCC1([C@@H](O)C/C=C/C2[C@H](O)CC(=O)[C@@H]2CCCCCCC(=O)OC)CCC1` (some centres undefined), for which the results for the EC50 in test [11] and in test [10] were 33 nM and 37 nM, respectively. For the same compound, the inhibition constant Ki in [2] was 2400 nM; in test [3], over 10000 nM; in test [5], over 10000 nM; in [6], over 10000 nM; in test [9] it was over 10000 nM.

Turning to `CCCC1([C@@H](O)C/C=C/C2[C@H](O)CC(=O)[C@@H]2C/C=C/CCCC(=O)O)CCC1` (some centres undefined), the Max response in test [12] stood at 22.8 delta mmHg. Besides, the values for the EC50 in test [10] and in test [4] were over 10000 nM and 43 nM, respectively. Moreover, the Ki in test [2] is 92 nM; in test [5], over 10000 nM; in [9] it was over 10000 nM. Also, in [7], it took a dose of 0.275 mg/kg to reach the 50% effect level (ED50).

`CCC1([C@@H](O)C/C=C/[C@H]2[C@H](O)CC(=O)[C@@H]2C/C=C\CCCC(=O)O)CCC1`: the Ki in test [2] was 30 nM; in test [3] it was over 10000 nM; in [5], over 10000 nM; in test [9], over 10000 nM. The EC50 in test [4] was found to be 11 nM.

On to `CCCC1([C@@H](O)C/C=C/C2[C@H](O)CC(=O)[C@@H]2CC#CCCCC(=O)O)CCC1` (some centres undefined), for which the Ki in test [2] is 1100 nM; in test [5], over 10000 nM; in test [6], over 10000 nM; in test [9], over 10000 nM.

With `CCCC1([C@@H](O)C/C=C/C2[C@H](O)CC(=O)[C@@H]2CCCCCCC(=O)O)CCC1` (some centres undefined), the Max response in test [12] is 39.8 delta mmHg. The results for the EC50 in [10] and in test [4] were 25 nM and 32 nM, respectively. For the same compound, the Ki in test [2] was 73 nM; in test [3], 870 nM; in test [5], over 10000 nM; in test [6], over 10000 nM; in [9], over 10000 nM. The ED50 in test [7] worked out at 0.455 mg/kg.

Regarding `CCCC1([C@@H](O)C/C=C/C2[C@H](O)CC(=O)[C@@H]2CCc2ccc(C(=O)O)cc2)CCC1` (some centres undefined), the EC50 in test [10] is over 10000 nM; in test [4], 54 nM. Also, the Ki was 25 nM in test [2], over 10000 nM in test [5] and over 10000 nM in [9].

As to `CC(C)CC1([C@@H](O)C/C=C/[C@H]2[C@H](O)CC(=O)[C@@H]2C/C=C\CCCC(=O)O)CCC1`, the Ki in test [2] was 40 nM; in [3], over 10000 nM; in test [5], over 10000 nM; in test [9], over 10000 nM. Also, it took 45 nM to reach a half-maximal effect in test [4] (EC50).

Take `CCC1([C@@H](O)C/C=C/[C@@H]2[C@@H](C/C=C\CCCC(=O)O)CC[C@H]2O)CCC1`: the Ki in test [2] is 11 nM; in test [3], over 10000 nM; in test [5], over 10000 nM; in [6], over 10000 nM; in [9], 5100 nM. The compound further came in with an EC50 in test [4] of 1400 nM.

For the compound `CCCC1([C@@H](O)C/C=C/[C@H]2[C@H](O)CC(=O)[C@@H]2C/C=C\CCCC(=O)O)CCCC1`, the Ki in test [2] was 370 nM; in [3] it was over 10000 nM; in test [5], over 10000 nM; in test [9] it was over 10000 nM. The EC50 in test [4] was 580 nM.

As to `CCCCCC1([C@@H](O)C/C=C/[C@H]2[C@H](O)CC(=O)[C@@H]2C/C=C\CCCC(=O)O)CCC1`, the inhibition constant (Ki) in test [2] is 20 nM; in [3], over 10000 nM; in [5] it was 2100 nM; in [6], 830 nM; in test [9], 1600 nM. This compound gave a concentration giving a half-maximal response (EC50) in test [4] of 130 nM.

Turning to `CCCCC[C@@H](O)/C=C/[C@H]1[C@H](O)CC(=O)[C@@H]1C/C=C\CCCC(=O)O`, the values for the EC50 in test [10] and in test [4] were 260 nM and 2.1 nM, respectively. Further, the Ki in [2] is 38 nM; in [3] it was over 10000 nM; in [6] it was 5 nM; in test [9], 18 nM. The compound also had an ED50 in test [7] of over 1.8 mg/kg.

With `CCCCC1([C@@H](O)C/C=C/[C@H]2[C@H](O)CC(=O)[C@@H]2C/C=C\CCCC(=O)O)CCC1`, the Ki in test [2] is 43 nM; in [3] it was over 10000 nM; in [5], over 10000 nM; in test [6], 2000 nM; in test [9] it was 780 nM. Also, in test [4], it took 71 nM to reach a half-maximal effect (EC50).
